System: GBS clinical isolates and laboratory strains
Test: Macrobroth penicillin tolerance assay
Assay type: cell-based, Group B Streptococcus
Details: then 24 h drug-free; for 100xMIC, regrowth O.D.600: Penicillin G 100×MIC90 48 h; for 300xMIC, regrowth O.D.600: Penicillin G 300×MIC90 48 h; for 10xMIC, regrowth O.D.600: Penicillin G 10×MIC90 48 h; for 30xMIC, regrowth O.D.600: Penicillin G 30×MIC90 48 h
Experimental: Using this modified penicillin tolerance assay, tolerant strains from the GBS clinical isolates can be more efficiently identified. In this macrobroth culture format, 25 ml THB broth GBS cultures (containing clinical isolates) were grown to an early exponential growth phase (˜0.2 OD600). Cell cultures (6 ml) were collected and divided into 4 culture tubes. […] Cell cultures were shaken at 150 rpm in order to maintain cells in suspension for proper growth. Subcultures (1/20 dilution) of cells were put into fresh THB containing […] Penase (i.e., 100 μl of Penase 10,000 U stock into 4 ml THB culture). Subcultures were allowed to grow for 24 hours at 37° C. Cell growth was monitored by OD (see Example 2).
(I) Bacterial Strains and Culture Conditions. GBS strains A909 (serotype IA), 515 (serotype IA), NEM316 (serotype III), COHI (serotype III), 2603V/R (serotype V) and O90R (non-typable) were used in this study. E. coli Top10 cells were used for the recombination experiments. GBS was cultured in Todd Hewitt broth (THB) or Tryptic Soy 5% sheep blood (TS) media and E. coli in Luria-broth (LB) medium or agar. Antibiotics were used at the following concentrations: for GBS—penicillin G (MIC90 0.06 μg ml^−1), ampicillin (MIC90 0.12 μg ml^−1), vancomycin (MIC90 2 μg ml^−1), cefazolin (MIC90 1 μg ml^−1) and chloramphenicol (5 μg ml^−1); for E. coli—ampicillin (50 μg ml^−1) and chloramphenicol (5 μg ml^−1). Both GBS and E. coli cultures were grown at 37° C. (II) Tolerance Using the MBC:MIC Ratio Method. Three GBS laboratory strains (i.e., A909, NEM316, and O90R) were cultured overnight for 18 h at 37° C. in THB. Subcultures in THB were subsequently grown to exponential phase (OD600˜0.3; i.e. 5×10^5 cfu/ml) at 37° C. Cell cultures were then exposed to different concentrations of antibiotics (Penicillin G, Ampicillin, Cefozolin or Vancomycin). […] Cell cultures were dispersed every 18 h before OD600 was measured to determine the lowest concentration of antibiotic with 90% growth inhibition (MIC90). Antibiotic treated cells (8 μl) from each well were re-suspended into PBS (100 μl) and plated (54 μl) on TS agar plates and allowed to grow for an additional 24 h at 37° C. Cell count was performed to determine the lowest concentration of antibiotic with 90% killing of original inoculums (MBC90). (III) Penicillin Killing and Regrowth Tolerance Assay by Microbroth Dilution. Three GBS laboratory strains (i.e., A909, NEM316, and O90R) were cultured overnight for 18 h at 37° C. in THB. Subcultures in THB were subsequently grown to exponential phase (OD600˜0.3) at 37° C. Cell cultures were then exposed to different concentrations of Penicillin G (Sigma, St. Louis, Mo.). […] Cell cultures were dispersed. A 1:20 dilution of cells was re-plated into new wells containing fresh THB with 500 U Penase (to degrade residual penicillin). Cell cultures were allowed to re-grow for an additional 24 h at 37° C. before the OD600 was measured. (IV) Measuring Cell Viability by Determining ATP Concentration. GBS strains were cultured for 18 h at 37° C. in THB. These cells were inoculated into fresh THB and subsequently allowed to grow to exponential phase (OD600 0.25-0.3) at 37° C. One ml of each culture was centrifuged at 5,000×g for 4 min. The cell pellet was re-suspended in ATP-free water. Cellular ATP was extracted using trichloroacetic acid (TCA) (5%) for 2 min and subsequently neutralized with Tris-EDTA-0.1M NaOAc, pH 7.75 to 10×TCA volume. The initial (in.) cellular ATP concentration ([ATP]) was measured using the ENLITEN (Promega) luciferase based reaction kit. THB cultures were then treated with 100×MIC90 Penicillin G for 22 h. The experimental (exp.) cellular ATP was extracted and the concentration was measured as stated above. Based on the calculations ([ATP] exp.)/([ATP] in./O.D. in.), differences in viability were equated with the change in [ATP]. (V) Measuring Penicillin Induced Lysis. Three GBS laboratory strains (A909, NEM316, and O90R) were cultured for 18 h at 37° C. in THB. […]

CC1(C)S[C@@H]2[C@H](NC(=O)Cc3ccccc3)C(=O)N2[C@H]1C(=O)O [Penicillin G]
100xMIC, regrowth O.D.600 (GBS strain 47 (III)): −− (“−−” indicates an O.D.600 of 0.001 to 0.099) | 300xMIC, regrowth O.D.600 (GBS strain 47 (III)): −− (“−−” indicates an O.D.600 of 0.001 to 0.099) | 10xMIC, regrowth O.D.600 (GBS strain 60 (NT)): + (“+” indicates an O.D.600 of 0.100 to 0.250) | 30xMIC, regrowth O.D.600 (GBS strain 60 (NT)): ++ (“++” indicates an O.D.600 of 0.251 to 0.750) | 100xMIC, regrowth O.D.600 (GBS strain 60 (NT)): + (“+” indicates an O.D.600 of 0.100 to 0.250) | 300xMIC, regrowth O.D.600 (GBS strain 60 (NT)): + (“+” indicates an O.D.600 of 0.100 to 0.250) | 10xMIC, regrowth O.D.600 (GBS strain 68 (III)): + (“+” indicates an O.D.600 of 0.100 to 0.250) | 30xMIC, regrowth O.D.600 (GBS strain 68 (III)): −− (“−−” indicates an O.D.600 of 0.001 to 0.099) | 100xMIC, regrowth O.D.600 (GBS strain 68 (III)): + (“+” indicates an O.D.600 of 0.100 to 0.250) | 300xMIC, regrowth O.D.600 (GBS strain 68 (III)): + (“+” indicates an O.D.600 of 0.100 to 0.250) | 10xMIC, regrowth O.D.600 (GBS strain 71 (III)): −− (“−−” indicates an O.D.600 of 0.001 to 0.099) | 30xMIC, regrowth O.D.600 (GBS strain 71 (III)): −− (“−−” indicates an O.D.600 of 0.001 to 0.099) | 100xMIC, regrowth O.D.600 (GBS strain 71 (III)): −− (“−−” indicates an O.D.600 of 0.001 to 0.099) | 300xMIC, regrowth O.D.600 (GBS strain 71 (III)): −− (“−−” indicates an O.D.600 of 0.001 to 0.099) | 10xMIC, regrowth O.D.600 (GBS strain 90 (Ib)): −− (“−−” indicates an O.D.600 of 0.001 to 0.099) | 30xMIC, regrowth O.D.600 (GBS strain 90 (Ib)): −− (“−−” indicates an O.D.600 of 0.001 to 0.099) | 100xMIC, regrowth O.D.600 (GBS strain 90 (Ib)): −− (“−−” indicates an O.D.600 of 0.001 to 0.099) | 300xMIC, regrowth O.D.600 (GBS strain 90 (Ib)): −− (“−−” indicates an O.D.600 of 0.001 to 0.099) | 10xMIC, regrowth O.D.600 (GBS strain 91 (III)): −− (“−−” indicates an O.D.600 of 0.001 to 0.099) | 30xMIC, regrowth O.D.600 (GBS strain 91 (III)): −− (“−−” indicates an O.D.600 of 0.001 to 0.099) | 100xMIC, regrowth O.D.600 (GBS strain 91 (III)): −− (“−−” indicates an O.D.600 of 0.001 to 0.099) | 300xMIC, regrowth O.D.600 (GBS strain 91 (III)): −− (“−−” indicates an O.D.600 of 0.001 to 0.099) | 10xMIC, regrowth O.D.600 (GBS strain 93 (Ib)): −− (“−−” indicates an O.D.600 of 0.001 to 0.099) | 30xMIC, regrowth O.D.600 (GBS strain 93 (Ib)): −− (“−−” indicates an O.D.600 of 0.001 to 0.099) | 100xMIC, regrowth O.D.600 (GBS strain 93 (Ib)): −− (“−−” indicates an O.D.600 of 0.001 to 0.099) | 300xMIC, regrowth O.D.600 (GBS strain 93 (Ib)): −− (“−−” indicates an O.D.600 of 0.001 to 0.099) | 10xMIC, regrowth O.D.600 (GBS strain 97 (V)): −− (“−−” indicates an O.D.600 of 0.001 to 0.099) | 30xMIC, regrowth O.D.600 (GBS strain 97 (V)): ++ (“++” indicates an O.D.600 of 0.251 to 0.750) | 100xMIC, regrowth O.D.600 (GBS strain 97 (V)): ++ (“++” indicates an O.D.600 of 0.251 to 0.750) | 300xMIC, regrowth O.D.600 (GBS strain 97 (V)): ++ (“++” indicates an O.D.600 of 0.251 to 0.750) | 10xMIC, regrowth O.D.600 (GBS strain 101 (NT)): −− (“−−” indicates an O.D.600 of 0.001 to 0.099) | 30xMIC, regrowth O.D.600 (GBS strain 101 (NT)): −− (“−−” indicates an O.D.600 of 0.001 to 0.099) | 100xMIC, regrowth O.D.600 (GBS strain 101 (NT)): −− (“−−” indicates an O.D.600 of 0.001 to 0.099) | 300xMIC, regrowth O.D.600 (GBS strain 101 (NT)): −− (“−−” indicates an O.D.600 of 0.001 to 0.099) | 10xMIC, regrowth O.D.600 (GBS strain 117 (Ia)): + (“+” indicates an O.D.600 of 0.100 to 0.250) | 30xMIC, regrowth O.D.600 (GBS strain 117 (Ia)): + (“+” indicates an O.D.600 of 0.100 to 0.250) | 100xMIC, regrowth O.D.600 (GBS strain 117 (Ia)): + (“+” indicates an O.D.600 of 0.100 to 0.250) | 300xMIC, regrowth O.D.600 (GBS strain 117 (Ia)): + (“+” indicates an O.D.600 of 0.100 to 0.250) | 10xMIC, regrowth O.D.600 (GBS strain 122 (III)): −− (“−−” indicates an O.D.600 of 0.001 to 0.099) | 30xMIC, regrowth O.D.600 (GBS strain 122 (III)): −− (“−−” indicates an O.D.600 of 0.001 to 0.099) | 100xMIC, regrowth O.D.600 (GBS strain 122 (III)): −− (“−−” indicates an O.D.600 of 0.001 to 0.099) | 300xMIC, regrowth O.D.600 (GBS strain 122 (III)): −− (“−−” indicates an O.D.600 of 0.001 to 0.099) | 10xMIC, regrowth O.D.600 (GBS strain 127 (Ia)): −− (“−−” indicates an O.D.600 of 0.001 to 0.099) | 30xMIC, regrowth O.D.600 (GBS strain 127 (Ia)): ++ (“++” indicates an O.D.600 of 0.251 to 0.750) | 100xMIC, regrowth O.D.600 (GBS strain 127 (Ia)): ++ (“++” indicates an O.D.600 of 0.251 to 0.750) | 300xMIC, regrowth O.D.600 (GBS strain 127 (Ia)): ++ (“++” indicates an O.D.600 of 0.251 to 0.750) | 10xMIC, regrowth O.D.600 (GBS strain 129 (V)): −− (“−−” indicates an O.D.600 of 0.001 to 0.099) | 30xMIC, regrowth O.D.600 (GBS strain 129 (V)): −− (“−−” indicates an O.D.600 of 0.001 to 0.099) | 100xMIC, regrowth O.D.600 (GBS strain 129 (V)): −− (“−−” indicates an O.D.600 of 0.001 to 0.099) | 300xMIC, regrowth O.D.600 (GBS strain 129 (V)): −− (“−−” indicates an O.D.600 of 0.001 to 0.099) | 10xMIC, regrowth O.D.600 (GBS strain 131 (V)): −− (“−−” indicates an O.D.600 of 0.001 to 0.099) | 30xMIC, regrowth O.D.600 (GBS strain 131 (V)): −− (“−−” indicates an O.D.600 of 0.001 to 0.099) | 100xMIC, regrowth O.D.600 (GBS strain 131 (V)): −− (“−−” indicates an O.D.600 of 0.001 to 0.099) | 300xMIC, regrowth O.D.600 (GBS strain 131 (V)): −− (“−−” indicates an O.D.600 of 0.001 to 0.099) | 10xMIC, regrowth O.D.600 (GBS strain 156 (Ia)): −− (“−−” indicates an O.D.600 of 0.001 to 0.099) | 30xMIC, regrowth O.D.600 (GBS strain 156 (Ia)): −− (“−−” indicates an O.D.600 of 0.001 to 0.099) | 100xMIC, regrowth O.D.600 (GBS strain 156 (Ia)): −− (“−−” indicates an O.D.600 of 0.001 to 0.099) | 300xMIC, regrowth O.D.600 (GBS strain 156 (Ia)): ++ (“++” indicates an O.D.600 of 0.251 to 0.750) | 10xMIC, regrowth O.D.600 (GBS strain 172 (NT)): −− (“−−” indicates an O.D.600 of 0.001 to 0.099)
